In the oligonucleotide strings, read from the 5' end, every base follows the letter of its sugar. An asterisk marks phosphorothioate; unmarked linkages are phosphodiester. Other units and linkages are bracketed, terminal groups are in braces. A string of capitals states the bases alone. e = 2'-O-(2-methoxyethyl) (MOE); [5mC] = 5-methylcytosine; d = 2'-deoxy (DNA)
Test system: human Factor XI mRNA
Test: Antisense inhibition in HepG2 cells by microwalk gapmers, 75 nM, lipofectin (Example 3)
Assay type: cell-based
Conditions: for % inhibition of human Factor XI mRNA levels: HepG2 cells, 75 nM
Experimental: These gapmers were designed by creating gapmers shifted slightly upstream and downstream (i.e. “microwalk”) of the original gapmers from Table 3. Gapmers were also created with various motifs, e.g. 5-10-5 MOE, 3-14-3 MOE, and 2-13-5 MOE. These gapmers were tested in vitro. Cultured HepG2 cells at a density of 10,000 cells per well were transfected using lipofectin reagent with 75 nM antisense oligonucleotide. After a treatment period of approximately 24 hours, RNA was isolated from the cells and Factor XI mRNA levels were measured by quantitative real-time PCR. Factor XI mRNA levels were adjusted according to total RNA content, as measured by RIBOGREEN®. Results are presented as percent inhibition of Factor XI, relative to untreated control cells.
The chimeric antisense oligonucleotides in Table 4 were designed as 5-10-5 MOE, 3-14-3 MOE, and 2-13-5 MOE gapmers. The first listed gapmers in Table 4 are the original gapmers (see Table 3) from which the remaining gapmers were designed via microwalk and are designated by an asterisk. The 5-10-5 gapmers are 20 nucleotides in length, wherein the central gap segment is comprised of 10 2′-deoxynucleotides and is flanked on both sides (in the 5′ and 3′ directions) by wings comprising 5 nucleotides each. The 3-14-3 gapmers are 20 nucleotides in length, wherein the central gap segment is comprised of 14 2′-deoxynucleotides and is flanked on both sides (in the 5′ and 3′ directions) by wings comprising 3 nucleotides each. The 2-13-5 gapmers are 20 nucleotides in length, wherein the central gap segment is comprised of 13 2′-deoxynucleotides. The central gap is flanked on the 5′ end with a wing comprising 2 nucleotides and on the 3′ end with a wing comprising 5 nucleotides. For each of the motifs (5-10-5, 3-14-3, and 2-13-5), each nucleotide in the 5′ wing segment and each nucleotide in the 3′ wing segment has a 2′-MOE modification. The internucleoside linkages throughout each gapmer are phosphorothioate (P═S) linkages. All cytidine residues throughout each gapmer are 5-methylcytidines. “Target start site” indicates the 5′-most nucleotide to which the gapmer is targeted. “Target stop site” indicates the 3′-most nucleotide to which the gapmer is targeted. Each gapmer listed in Table 4 is targeted to SEQ ID NO: 1 (GENBANK Accession No. NM_000128.3).

[1] = oligonucleotides targeted to nucleobases 1062 to 1091 of SEQ ID NO: 1
[2] = oligonucleotides targeted to nucleobases 738 to 762 of SEQ ID NO: 1
[3] = oligonucleotides targeted to nucleobases 1018 to 1042 of SEQ ID NO: 1
[4] = oligonucleotides targeted to nucleobases 1275 to 1318 of SEQ ID NO: 1

| Substance | % inhibition of human Factor XI mRNA levels [1] [%] | % inhibition of human Factor XI mRNA levels [4] [%] | other results |
| --- | --- | --- | --- |
| 416844 (antisense e[5mC]*eT*eT*eT*eG*dA*dG*dA*dT*dT*d[5mC]*dT*dT*dT*dG*eG*eG*e[5mC]*e[5mC]*eA) [compound 416844] | 90 | – | – |
| 416845 (antisense eT*e[5mC]*eT*eT*eT*dG*dA*dG*dA*dT*dT*d[5mC]*dT*dT*dT*eG*eG*eG*e[5mC]*e[5mC]) [compound 416845] | 86 | – | – |
| 416846 (antisense eT*eT*e[5mC]*eT*eT*dT*dG*dA*dG*dA*dT*dT*d[5mC]*dT*dT*eT*eG*eG*eG*e[5mC]) [compound 416846] | 72 | – | – |
| 416847 (antisense eT*eT*eT*e[5mC]*eT*dT*dT*dG*dA*dG*dA*dT*dT*d[5mC]*dT*eT*eT*eG*eG*eG) [compound 416847] | 50 | – | – |
| 416894 (antisense eA*eT*eG*d[5mC]*d[5mC]*d[5mC]*dT*dT*d[5mC]*dA*dT*dG*dT*d[5mC]*dT*dA*dG*eG*eT*e[5mC]) [compound 416894] | – | – | % inhibition (HepG2, 75 nM, approximately 24 hours, nucleobases 656 to 704 of SEQ ID NO: 1): 84% |
| 416898 (antisense e[5mC]*e[5mC]*eG*dT*dG*d[5mC]*dA*dT*d[5mC]*dT*dT*dT*d[5mC]*dT*dT*dG*dG*e[5mC]*eA*eT) [compound 416898] | – | – | % inhibition of human Factor XI mRNA levels [2]: 88% |
| 416899 (antisense eT*e[5mC]*e[5mC]*dG*dT*dG*d[5mC]*dA*dT*d[5mC]*dT*dT*dT*d[5mC]*dT*dT*dG*eG*e[5mC]*eA) [compound 416899] | – | – | % inhibition of human Factor XI mRNA levels [2]: 86% |
| 416900 (antisense eA*eT*e[5mC]*d[5mC]*dG*dT*dG*d[5mC]*dA*dT*d[5mC]*dT*dT*dT*d[5mC]*dT*dT*eG*eG*e[5mC]) [compound 416900] | – | – | % inhibition of human Factor XI mRNA levels [2]: 90% |
| 416901 (antisense e[5mC]*eA*eT*d[5mC]*d[5mC]*dG*dT*dG*d[5mC]*dA*dT*d[5mC]*dT*dT*dT*d[5mC]*dT*eT*eG*eG) [compound 416901] | – | – | % inhibition of human Factor XI mRNA levels [2]: 65% |
| 416902 (antisense eT*e[5mC]*eA*dT*d[5mC]*d[5mC]*dG*dT*dG*d[5mC]*dA*dT*d[5mC]*dT*dT*dT*d[5mC]*eT*eT*eG) [compound 416902] | – | – | % inhibition of human Factor XI mRNA levels [2]: 46% |
| 416903 (antisense eG*eT*e[5mC]*dA*dT*d[5mC]*d[5mC]*dG*dT*dG*d[5mC]*dA*dT*d[5mC]*dT*dT*dT*e[5mC]*eT*eT) [compound 416903] | – | – | % inhibition of human Factor XI mRNA levels [2]: 88% |
| 416904 (antisense e[5mC]*e[5mC]*eG*dG*dG*dA*dT*dG*dA*dT*dG*dA*dG*dT*dG*d[5mC]*dA*eG*eA*eT) [compound 416904] | – | – | % inhibition of human Factor XI mRNA levels [3]: 90% |
| 416905 (antisense eA*e[5mC]*e[5mC]*dG*dG*dG*dA*dT*dG*dA*dT*dG*dA*dG*dT*dG*d[5mC]*eA*eG*eA) [compound 416905] | – | – | % inhibition of human Factor XI mRNA levels [3]: 85% |
| 416906 (antisense eA*eA*e[5mC]*d[5mC]*dG*dG*dG*dA*dT*dG*dA*dT*dG*dA*dG*dT*dG*e[5mC]*eA*eG) [compound 416906] | – | – | % inhibition of human Factor XI mRNA levels [3]: 88% |
| 416907 (antisense e[5mC]*eA*eA*d[5mC]*d[5mC]*dG*dG*dG*dA*dT*dG*dA*dT*dG*dA*dG*dT*eG*e[5mC]*eA) [compound 416907] | – | – | % inhibition of human Factor XI mRNA levels [3]: 90% |
| 416909 (antisense eA*eT*eT*d[5mC]*dT*dT*dT*dG*dG*dG*d[5mC]*d[5mC]*dA*dT*dT*d[5mC]*d[5mC]*eT*eG*eG) [compound 416909] | 78 | – | – |
| 416910 (antisense eG*eA*eT*dT*d[5mC]*dT*dT*dT*dG*dG*dG*d[5mC]*d[5mC]*dA*dT*dT*d[5mC]*e[5mC]*eT*eG) [compound 416910] | 90 | – | – |
| 416911 (antisense eA*eG*eA*dT*dT*d[5mC]*dT*dT*dT*dG*dG*dG*d[5mC]*d[5mC]*dA*dT*dT*e[5mC]*e[5mC]*eT) [compound 416911] | 90 | – | – |
| 416912 (antisense eG*eA*eG*dA*dT*dT*d[5mC]*dT*dT*dT*dG*dG*dG*d[5mC]*d[5mC]*dA*dT*eT*e[5mC]*e[5mC]) [compound 416912] | 92 | – | – |
| 416913 (antisense eT*eG*eA*dG*dA*dT*dT*d[5mC]*dT*dT*dT*dG*dG*dG*d[5mC]*d[5mC]*dA*eT*eT*e[5mC]) [compound 416913] | 93 | – | – |

| Substance | % inhibition of human Factor XI mRNA levels [1] [%] | % inhibition of human Factor XI mRNA levels [4] [%] | other results |
| --- | --- | --- | --- |
| 416914 (antisense eT*eT*eG*dA*dG*dA*dT*dT*d[5mC]*dT*dT*dT*dG*dG*dG*d[5mC]*d[5mC]*eA*eT*eT) [compound 416914] | 87 | – | – |
| 416915 (antisense eT*eT*eT*dG*dA*dG*dA*dT*dT*d[5mC]*dT*dT*dT*dG*dG*dG*d[5mC]*e[5mC]*eA*eT) [compound 416915] | 79 | – | – |
| 416916 (antisense e[5mC]*eT*eT*dT*dG*dA*dG*dA*dT*dT*d[5mC]*dT*dT*dT*dG*dG*dG*e[5mC]*e[5mC]*eA) [compound 416916] | 91 | – | – |
| 416917 (antisense eT*e[5mC]*eT*dT*dT*dG*dA*dG*dA*dT*dT*d[5mC]*dT*dT*dT*dG*dG*eG*e[5mC]*e[5mC]) [compound 416917] | 92 | – | – |
| 416918 (antisense eT*eT*e[5mC]*dT*dT*dT*dG*dA*dG*dA*dT*dT*d[5mC]*dT*dT*dT*dG*eG*eG*e[5mC]) [compound 416918] | 63 | – | – |
| 416919 (antisense eT*eT*eT*d[5mC]*dT*dT*dT*dG*dA*dG*dA*dT*dT*d[5mC]*dT*dT*dT*eG*eG*eG) [compound 416919] | 27 | – | – |
| 416920 (antisense eA*e[5mC]*eA*dG*dT*dT*dT*d[5mC]*dT*dG*dG*d[5mC]*dA*dG*dG*d[5mC]*d[5mC]*eT*e[5mC]*eG) [compound 416920] | – | 88 | – |
| 416921 (antisense e[5mC]*eA*e[5mC]*dA*dG*dT*dT*dT*d[5mC]*dT*dG*dG*d[5mC]*dA*dG*dG*d[5mC]*e[5mC]*eT*e[5mC]) [compound 416921] | – | 88 | – |
| 416927 (antisense eT*eT*eG*dG*dT*dG*d[5mC]*dA*d[5mC]*dA*dG*dT*dT*dT*d[5mC]*dT*dG*eG*e[5mC]*eA) [compound 416927] | – | 87 | – |
| 416928 (antisense eA*eT*eT*dG*dG*dT*dG*d[5mC]*dA*d[5mC]*dA*dG*dT*dT*dT*d[5mC]*dT*eG*eG*e[5mC]) [compound 416928] | – | 91 | – |
| 416929 (antisense e[5mC]*eA*eT*dT*dG*dG*dT*dG*d[5mC]*dA*d[5mC]*dA*dG*dT*dT*dT*d[5mC]*eT*eG*eG) [compound 416929] | – | 83 | – |
| 416930 (antisense eG*e[5mC]*eA*dT*dT*dG*dG*dT*dG*d[5mC]*dA*d[5mC]*dA*dG*dT*dT*dT*e[5mC]*eT*eG) [compound 416930] | – | 87 | – |
| 416932 (antisense e[5mC]*eG*eG*d[5mC]*dA*dT*dT*dG*dG*dT*dG*d[5mC]*dA*d[5mC]*dA*dG*dT*eT*eT*e[5mC]) [compound 416932] | – | 92 | – |
| 416933 (antisense eA*e[5mC]*eG*dG*d[5mC]*dA*dT*dT*dG*dG*dT*dG*d[5mC]*dA*d[5mC]*dA*dG*eT*eT*eT) [compound 416933] | – | 92 | – |
| 416934 (antisense eG*eA*e[5mC]*dG*dG*d[5mC]*dA*dT*dT*dG*dG*dT*dG*d[5mC]*dA*d[5mC]*dA*eG*eT*eT) [compound 416934] | – | 90 | – |
| 416935 (antisense eG*eG*eA*d[5mC]*dG*dG*d[5mC]*dA*dT*dT*dG*dG*dT*dG*d[5mC]*dA*d[5mC]*eA*eG*eT) [compound 416935] | – | 92 | – |
| 416936 (antisense e[5mC]*eG*eG*dA*d[5mC]*dG*dG*d[5mC]*dA*dT*dT*dG*dG*dT*dG*d[5mC]*dA*e[5mC]*eA*eG) [compound 416936] | – | 89 | – |
| 416937 (antisense eG*e[5mC]*eG*dG*dA*d[5mC]*dG*dG*d[5mC]*dA*dT*dT*dG*dG*dT*dG*d[5mC]*eA*e[5mC]*eA) [compound 416937] | – | 93 | – |
| 416938 (antisense eA*eG*e[5mC]*dG*dG*dA*d[5mC]*dG*dG*d[5mC]*dA*dT*dT*dG*dG*dT*dG*e[5mC]*eA*e[5mC]) [compound 416938] | – | 90 | – |
